Source: US8916574B2, “4-(substituted anilino)-quinazoline derivatives useful as tyrosine kinase inhibitors” (Qilu Pharmaceutical Co., Ltd., priority 2009, dated 2014)
Like-named read-outs stand apart in the source and are kept apart here.

Key:
[1] = target: EGFR receptor tyrosine kinase (Homo sapiens (Human), UniProt P00533); assay: In vitro kinase analysis, HTScan EGF Receptor Kinase Assay Kit (substrate peptide phosphorylation); format: biochemical
Description: (§1) Operation steps refer to the specification of the used kits, and the method was used to measure the inhibition effects of the compound to be tested on substrate peptide phosphorylation of EGFR or Her2 receptor tyrosine kinase. At room temperature, ATP and substrate peptide as well as the compound to be tested were incubated in kinase reaction buffer, after a period of incubation, a stop buffer was added to terminate the reaction and the sample was transferred to a streptavidin-coated 96-well plate, the plate was washed and the phosphorylation level of substrate peptide was detected by using HRP-marked antibody against substrate phosphorylation, colorated with TMB, terminated the reaction with 2M sulfuric acid. Absorption at 450 nm wavelength was detected, and IC50 value (μM) was calculated.

[2] = target: Her2 receptor tyrosine kinase (Homo sapiens (Human), UniProt P04626); assay: In vitro kinase analysis, HTScan HER2/ErbB2 Kinase Assay Kit (substrate peptide phosphorylation); format: biochemical
Description: as §1

[3] = tested on: human gastric cancer cell line NCI-N87; assay: Test of cell proliferation inhibition (SRB), N87; format: cell-based; details: for IC50: Homo sapiens, NCI-N87, 72 h, read-out: Test of cell proliferation inhibition IC50 N87
Description: (§2) The test was performed by referring to the method as described by Rusnak et al., Cell Prolif, 2007, 40, 580-594. The test of cell proliferation inhibition used human breast cancer cells BT474 and human gastric cancer cell line NCI-N87, BT474 over-expressing Her2 receptor, N87 over-expressing EGFR and Her2 receptor.
(§3) In a Dulbecco Modified Eagle Medium (DMEM) comprising 10% fetal bovine serum, 2 mM glutamine and non-essential amino acids, cells were cultured at 37° C. in 5% CO2 cell incubator, and trypsin/ethylenediamine tetraacetic acid (EDTA) were used to harvest cells in cell culture bottle. […] The change of cell form was observed under microscope, then 50 μl 50% (mass/volume)trichloroacetic acid (TCA) was added to per well to fix cells. The final concentration of TCA was 10%, standing for 5 min and placing in 4° C. refrigerator for 1 h, the wells of the culture plate were washed with deionized water for 5 times to remove TCA, drained, dried in air until no wet trace was observed. 100 μl of 0.4% (mass/volume) SRB was added to each well, stood at room temperature for 10 min, the liquid in each well was discarded, then the wells were washed with 1% acetic acid for 5 times, dried in air, extracted with 150 μl of 10 mM Tris base (trihydroxymethylaminomethane, pH 10.5), the absorption at 540 nm wavelength was detected.

[4] = tested on: human breast cancer cells BT474; assay: Test of cell proliferation inhibition (SRB), BT474; format: cell-based; details: BT-474, 72 h
Description: as §2, §3

[5] = tested on: human gastric cancer NCI-N87 transplanted tumor; assay: Tumor inhibition at a single dose, NCI-N87 transplanted tumor in nude mice; format: in vivo, BALB/cA-nude mice; details: 200 mg/kg intragastrically, once per day, 28 days; for Rate of tumor inhibition d21 (%): head prints d21; for d28 Vave (tumor volume): in mm³; for Animal number in each group: Partial regression: of 6 animals
Source text: (§4) BALB/cA-nude mice, female, 4-6 weeks, body weight 22±2 g, were purchased from Shanghai SLAC Laboratory Animal Co. Ltd, raised in SPF grade environment.
(§5) In vitro cultured NCI-N87 cells were subcutaneously inoculated at right axillary fossa of nude mice, each was inoculated with about 5×10^6 cells, and passaged twice in vivo after tumor formation. Under sterile conditions, eugonic tumor tissues were cut into tumor pieces of about 1.5 mm^3, and inoculated at right axillary fossa of nude mice. Tumor diameters were measured by vernier caliper, the animals were randomly divided (d0) after the tumors grew to 100-200 mm^3. […] During administration period, the body weight of mice and the diameter of tumors were measured 3 times per week. The tumor volume and relative tumor volume were calculated according to the measured data, the formulation for calculating tumor volume (TV) is: TV=½×a×b^2, wherein a, b represent major diameter and minor diameter of tumor; the formulation for calculating relative tumor volume (RTV) is: RTV=Vt/V0, wherein V0 is the tumor volume measured when dividing groups for administration (i.e., d0), Vt is tumor volume measured each time. […] The formulation for calculating relative tumor inhibition rate is: 1−T/C (%).

[6] = tested on: human ovarian cancer SK-OV-3 transplanted tumor; assay: Tumor inhibition at a single dose, SK-OV-3 transplanted tumor in nude mice; format: in vivo, BALB/cA-nude mice; details: 200 mg/kg intragastrically, once per day, 21 days; for Animal number in each group: Partial regression: of 6 animals
Source text: as §4, §5
Nude mice were subcutaneously inoculated with human ovarian cancer SK-OV-3 cells, after tumors grew to 60-150 mm^3, the animals were randomly divided into groups (d0). […] During the administration period, the body weight of mice and the diameter of tumor were measured 3 times per week. The tumor volume, relative tumor inhibition rate and so on were calculated according to the aforementioned methods.

[7] = tested on: human ovarian cancer SK-OV-3 transplanted tumor; assay: Tumor inhibition at different dosages, SK-OV-3 transplanted tumor in nude mice; format: in vivo, BALB/cA-nude mice; details: once per day, 21 days; for Animal number in each group: Partial regression: of 6 animals
Source text: as §4, §5
Nude mice were subcutaneously inoculated with human ovarian cancer SK-OV-3 cells, after tumors grew to 60-150 mm^3, the animals were randomly divided into groups (d0). […] The tumor volume, and body weight of mice were measured 3 times per week, and all data were recorded. The tumor volume, relative tumor inhibition rate and so on were calculated according to the aforementioned methods.

[8] = Pharmacokinetics in SD rats after a single intragastric dose; format: in vivo; details: 100 mg/kg intragastric single dose, plasma
Description: The animals were fasted for 12 h before test, drinking water freely. And fed after 2 h of administration. At 0.25, 0.5, 1.0, 2.0, 3.0, 5.0, 7.0, 9.0, 12 and 24 h after administration, 0.3 ml blood samples were taken from venous plexus behind eyeball of rats into heparinized test tubes, then centrifuged at 11000 rpm for 5 min, plasma were separated, and preserved at […]. The concentrations of drug in original form and metabolites thereof in plasma were measured by liquid chromatography-mass spectrometry.

[9] = target: hERG potassium currents (IKr) (Homo sapiens (Human), UniProt Q12809); assay: hERG potassium currents, whole cell patch clamp in transfected HEK293 cells; format: cell-based; details: HEK293 cells transfected with hERG cDNA
hERG potassium currents (IKr), sequence (Q12809 whole entry): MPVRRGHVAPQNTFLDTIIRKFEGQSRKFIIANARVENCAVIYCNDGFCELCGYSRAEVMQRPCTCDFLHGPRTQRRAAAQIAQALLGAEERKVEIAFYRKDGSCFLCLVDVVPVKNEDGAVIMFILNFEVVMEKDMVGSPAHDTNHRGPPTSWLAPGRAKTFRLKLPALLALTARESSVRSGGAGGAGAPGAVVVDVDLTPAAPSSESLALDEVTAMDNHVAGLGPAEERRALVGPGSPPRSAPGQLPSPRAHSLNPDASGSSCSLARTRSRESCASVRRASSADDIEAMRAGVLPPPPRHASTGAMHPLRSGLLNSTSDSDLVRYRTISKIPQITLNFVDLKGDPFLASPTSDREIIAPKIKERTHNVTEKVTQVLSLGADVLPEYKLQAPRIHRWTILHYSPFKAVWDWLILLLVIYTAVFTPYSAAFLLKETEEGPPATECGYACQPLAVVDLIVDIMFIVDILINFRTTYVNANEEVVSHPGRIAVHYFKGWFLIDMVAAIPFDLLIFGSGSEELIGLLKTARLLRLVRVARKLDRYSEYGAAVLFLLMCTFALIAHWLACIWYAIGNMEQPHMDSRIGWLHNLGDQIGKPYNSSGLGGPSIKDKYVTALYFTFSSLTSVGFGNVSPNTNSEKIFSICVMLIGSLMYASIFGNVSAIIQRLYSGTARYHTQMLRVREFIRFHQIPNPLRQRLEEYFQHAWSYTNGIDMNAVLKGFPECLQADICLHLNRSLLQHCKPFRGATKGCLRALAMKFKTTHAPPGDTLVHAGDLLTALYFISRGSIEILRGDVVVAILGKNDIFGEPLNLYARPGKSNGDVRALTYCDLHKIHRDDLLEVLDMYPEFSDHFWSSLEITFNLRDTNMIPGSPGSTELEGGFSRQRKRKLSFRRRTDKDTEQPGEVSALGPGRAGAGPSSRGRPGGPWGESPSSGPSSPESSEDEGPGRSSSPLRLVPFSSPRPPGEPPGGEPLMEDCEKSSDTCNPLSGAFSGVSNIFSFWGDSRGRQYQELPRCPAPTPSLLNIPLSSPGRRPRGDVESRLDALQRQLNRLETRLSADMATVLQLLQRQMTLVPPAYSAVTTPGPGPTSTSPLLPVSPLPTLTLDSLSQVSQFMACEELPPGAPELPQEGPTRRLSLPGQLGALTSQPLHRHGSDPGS

EGFR receptor tyrosine kinase, sequence (P00533 25-1210): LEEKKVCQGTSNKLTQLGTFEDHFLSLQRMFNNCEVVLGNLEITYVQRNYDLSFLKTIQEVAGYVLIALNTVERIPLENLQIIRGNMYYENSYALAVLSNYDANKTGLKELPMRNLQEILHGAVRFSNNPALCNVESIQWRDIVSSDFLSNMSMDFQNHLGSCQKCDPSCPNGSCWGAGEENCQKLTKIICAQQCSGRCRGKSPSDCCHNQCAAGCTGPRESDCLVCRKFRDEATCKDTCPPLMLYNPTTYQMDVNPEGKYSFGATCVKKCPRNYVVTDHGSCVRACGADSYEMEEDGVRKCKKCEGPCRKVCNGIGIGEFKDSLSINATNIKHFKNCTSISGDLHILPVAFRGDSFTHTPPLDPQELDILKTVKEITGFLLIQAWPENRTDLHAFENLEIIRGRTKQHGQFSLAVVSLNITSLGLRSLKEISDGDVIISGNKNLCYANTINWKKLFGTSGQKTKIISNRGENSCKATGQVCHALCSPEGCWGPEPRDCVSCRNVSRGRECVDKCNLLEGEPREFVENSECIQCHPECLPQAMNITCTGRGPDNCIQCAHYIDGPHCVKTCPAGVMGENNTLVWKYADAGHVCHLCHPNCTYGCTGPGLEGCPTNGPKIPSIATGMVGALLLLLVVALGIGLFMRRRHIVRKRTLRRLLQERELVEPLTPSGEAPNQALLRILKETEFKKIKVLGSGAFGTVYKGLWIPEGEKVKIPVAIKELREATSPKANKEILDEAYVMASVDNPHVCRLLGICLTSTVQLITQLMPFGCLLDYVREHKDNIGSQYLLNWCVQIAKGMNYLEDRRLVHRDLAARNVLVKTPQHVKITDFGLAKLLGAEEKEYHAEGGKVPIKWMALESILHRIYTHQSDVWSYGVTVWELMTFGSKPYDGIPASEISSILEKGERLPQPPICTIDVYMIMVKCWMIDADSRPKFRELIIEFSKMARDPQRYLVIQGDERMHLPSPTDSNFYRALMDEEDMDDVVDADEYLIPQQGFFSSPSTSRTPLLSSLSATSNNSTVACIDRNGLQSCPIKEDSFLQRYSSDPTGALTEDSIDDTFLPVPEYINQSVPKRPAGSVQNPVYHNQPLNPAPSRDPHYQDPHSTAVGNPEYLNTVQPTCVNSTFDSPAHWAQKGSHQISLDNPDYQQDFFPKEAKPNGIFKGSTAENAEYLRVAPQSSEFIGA
Her2 receptor tyrosine kinase, sequence (P04626 23-1255): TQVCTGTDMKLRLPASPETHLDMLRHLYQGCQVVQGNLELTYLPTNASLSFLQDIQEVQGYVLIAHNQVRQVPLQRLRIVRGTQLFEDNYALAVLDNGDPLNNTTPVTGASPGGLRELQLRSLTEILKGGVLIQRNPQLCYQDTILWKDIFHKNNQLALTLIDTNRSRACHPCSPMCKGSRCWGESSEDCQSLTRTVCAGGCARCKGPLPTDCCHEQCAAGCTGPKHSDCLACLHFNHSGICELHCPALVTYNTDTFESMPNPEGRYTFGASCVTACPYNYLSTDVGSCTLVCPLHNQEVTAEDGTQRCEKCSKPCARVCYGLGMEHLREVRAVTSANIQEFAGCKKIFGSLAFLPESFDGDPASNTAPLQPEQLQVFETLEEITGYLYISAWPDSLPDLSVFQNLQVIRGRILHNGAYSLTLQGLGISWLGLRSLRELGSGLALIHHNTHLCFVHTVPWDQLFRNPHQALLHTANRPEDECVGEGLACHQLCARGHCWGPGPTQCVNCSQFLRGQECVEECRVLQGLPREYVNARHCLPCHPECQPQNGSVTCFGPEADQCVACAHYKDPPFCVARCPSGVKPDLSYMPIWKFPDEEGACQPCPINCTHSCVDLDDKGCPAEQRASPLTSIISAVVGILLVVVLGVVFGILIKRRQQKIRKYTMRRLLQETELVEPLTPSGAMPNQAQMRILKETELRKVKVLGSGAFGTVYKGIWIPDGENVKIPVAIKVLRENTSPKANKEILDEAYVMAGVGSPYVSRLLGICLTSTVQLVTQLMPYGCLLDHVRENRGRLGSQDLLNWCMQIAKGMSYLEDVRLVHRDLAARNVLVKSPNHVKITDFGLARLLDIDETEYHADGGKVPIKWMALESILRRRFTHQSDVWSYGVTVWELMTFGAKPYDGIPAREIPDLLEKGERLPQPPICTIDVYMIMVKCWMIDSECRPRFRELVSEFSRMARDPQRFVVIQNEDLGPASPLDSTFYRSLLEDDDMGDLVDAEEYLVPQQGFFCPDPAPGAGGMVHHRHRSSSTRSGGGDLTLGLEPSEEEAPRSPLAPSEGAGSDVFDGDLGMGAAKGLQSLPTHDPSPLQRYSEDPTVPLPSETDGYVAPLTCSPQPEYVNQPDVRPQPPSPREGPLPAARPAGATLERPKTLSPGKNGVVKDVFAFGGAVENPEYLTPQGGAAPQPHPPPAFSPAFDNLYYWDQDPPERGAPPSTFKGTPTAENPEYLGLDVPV

| Compound | IC50 [1] [nM] | IC50 [2] [nM] | IC50 [3] [nM] | IC50 [4] [nM] | Rate of tumor inhibition d21 (%) [5] [%] | d28 Vave (tumor volume) [5] | Animal number in each group: Partial regression [5] | Rate of tumor inhibition d21 (%) [6] [%] | d21 Vave (tumor volume) [6] [mm^3] | Animal number in each group: Partial regression [6] | further results |
| --- | --- | --- | --- | --- | --- | --- | --- | --- | --- | --- | --- |
| CS(=O)(=O)NCCNCc1ccc(-c2ccc3ncnc(Nc4ccc(OCc5cccc(F)c5)c(Cl)c4)c3c2)o1 [Compound 4, N-(4-(3-fluorobenzyloxy)-3-chlorophenyl)-6-(5-((2-(methylsulfonamido)ethylamino)methyl)-2-furyl)-quinazolin-4-amine] | 15.5 | 7.06 |  |  |  |  |  |  |  |  |  |
| O=S(=O)(CCNCc1ccc(-c2ccc3ncnc(Nc4ccc(OCc5cccc(F)c5)c(Cl)c4)c3c2)o1)C(F)(F)F [Compound 6, N-(4-(3-fluorobenzyloxy)-3-chlorophenyl)-6-(5-((2-(trifluoromethylsulfonyl)ethylamino)methyl)-2-furyl)-quinazolin-4-amine] | 32.4 | 25.6 | 54.6 | 49.7 |  |  |  |  |  |  |  |
| O=S(=O)(CCNCc1ccc(-c2ccc3ncnc(Nc4ccc(OCc5cccc(F)c5)c(Cl)c4)c3c2)o1)CC(F)(F)F [Compound 5, N-(4-(3-fluorobenzyloxy)-3-chlorophenyl)-6-(5-((2-(2,2,2-trifluoroethylsulfonyl)ethylamino)methyl)-2-furyl)-quinazolin-4-amine] | 14.6 | 8.08 | 33.7 | 18.8 | 46.8 | 414.78 | 1 | 45 | 770.9 | 0 | RTV (relative tumor volume) [5]: 2.574; RTV (relative tumor volume) [6]: 5.8 |
| CS(=O)(=O)CCNCc1ccc(-c2ccc3ncnc(Nc4ccc(OCc5cccc(F)c5)c(Cl)c4)c3c2)o1 [Compound 61, N-(4-(3-fluorobenzyloxy)-3-chlorophenyl)-6-(5-((2-(methylsulfonyl)ethylamino)methyl)-2-furyl)-quinazolin-4-amine, reference compound] |  |  |  |  | 89.8 | 106.20 | 5 | 79 | 291.0 | 1 | biological activity results in the same test (in words) ([3]; same test as Table 1 (cell proliferation inhibition, N87 and BT474), comparison in words): close to those of compound 6; Rate of tumor inhibition d21 (%) ([7]; 200 mg/kg intragastrically): 75%; d21 Vave (tumor volume) ([7]; 200 mg/kg intragastrically): 350.1 mm^3; Animal number in each group: Partial regression ([7]; 200 mg/kg intragastrically): 0; AUC0-t ± SD [8]: 26908 ± 9085 ng·h/mL; AUC0-∞ ± SD [8]: 26921 ± 9092 ng·h/mL; Cmax ± SD [8]: 3902 ± 1208 ng/mL; MRT ± SD [8]: 5.52 ± 0.90 h; T1/2 ± SD [8]: 1.91 ± 0.45 h; Tmax ± SD [8]: 2.5 ± 0.6 h |
| NS(=O)(=O)CCNCc1ccc(-c2ccc3ncnc(Nc4ccc(OCc5cccc(F)c5)c(Cl)c4)c3c2)o1 [Compound 1, N-(4-(3-fluorobenzyloxy)-3-chlorophenyl)-6-(5-((2-(sulfamoyl)ethylamino)methyl)-2-furyl)-quinazolin-4-amine] |  | 1.55 |  |  |  |  |  |  |  |  |  |
| C[S+]([O-])CCNCc1ccc(-c2ccc3ncnc(Nc4ccc(OCc5cccc(F)c5)c(Cl)c4)c3c2)o1 (centres unmarked) [Compound 2, N-(4-(3-fluorobenzyloxy)-3-chlorophenyl)-6-(5-((2-(methylsulfinyl)ethylamino)methyl)-2-furyl)-quinazolin-4-amine] | 52.7 |  |  |  |  |  |  |  |  |  | AUC0-t ± SD [8]: 50299 ± 12863 ng·h/mL; AUC0-∞ ± SD [8]: 53236 ± 12248 ng·h/mL; Cmax ± SD [8]: 8881 ± 2061 ng/mL; MRT ± SD [8]: 5.38 ± 0.59 h; T1/2 ± SD [8]: 2.32 ± 0.5 h; Tmax ± SD [8]: 3.5 ± 1.0 h; IC50 ([9]; read-out: semi-effective inhibition dose IC50 for IKr pulse current): 10100 ± 960 nM; IC50 ([9]; read-out: semi-effective inhibition dose IC50 for tail current): ~9240 nM |
| CSCCNCc1ccc(-c2ccc3ncnc(Nc4ccc(OCc5cccc(F)c5)c(Cl)c4)c3c2)o1 [Compound 3, N-(4-(3-fluorobenzyloxy)-3-chlorophenyl)-6-(5-((2-(methylthio)ethylamino)methyl)-2-furyl)-quinazolin-4-amine] | 56.2 | 34.6 | 24.9 | 23.4 | 84.6 | 143.01 | 4 | 75 | 334.8 | 0 | RTV (relative tumor volume) [5]: 0.743; RTV (relative tumor volume) [6]: 2.7; RTV (relative tumor volume) ([7]; 50 mg/kg intragastrically): 6.9; Rate of tumor inhibition d21 (%) ([7]; 50 mg/kg intragastrically): 32%; d21 Vave (tumor volume) ([7]; 50 mg/kg intragastrically): 830.7 mm^3; Animal number in each group: Partial regression ([7]; 50 mg/kg intragastrically): 0; RTV (relative tumor volume) ([7]; 100 mg/kg intragastrically): 6.5; Rate of tumor inhibition d21 (%) ([7]; 100 mg/kg intragastrically): 36%; d21 Vave (tumor volume) ([7]; 100 mg/kg intragastrically): 778.6 mm^3; Animal number in each group: Partial regression ([7]; 100 mg/kg intragastrically): 0; RTV (relative tumor volume) ([7]; 200 mg/kg intragastrically): 4.4; Rate of tumor inhibition d21 (%) ([7]; 200 mg/kg intragastrically): 56%; d21 Vave (tumor volume) ([7]; 200 mg/kg intragastrically): 612.6 mm^3; Animal number in each group: Partial regression ([7]; 200 mg/kg intragastrically): 0 |
